How the values were obtained:
Assay type in all cases: in vivo
[1] = test system: sunflower (common oilseed sunflower, Helianthus annuus); experiment: Test B preemergence, sunflower; conditions: Preemergence, scale 0 to 100
In short: (§1)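 Preemergence soil application to seeded loam–sand mix; formulation: non-phytotoxic solvent + surfactant. Greenhouse, 13–15 d. Read-out: visual % control vs untreated, 0–100. Dash = not tested.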

[2] = test system: soybean (Glycine max); experiment: Test B preemergence, soybean; conditions: Preemergence, scale 0 to 100
In short: as §1

[3] = test system: large crabgrass (Digitaria sanguinalis); experiment: Test A postemergence, large crabgrass; conditions: 0 to 100 scale (0 no effect, 100 complete control)
In short: (§2)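 Ratings of 0–100 (0 no effect, 100 complete control) came from visual comparison with untreated controls after roughly ten days in a greenhouse. Plants in loam soil–sand blend were treated with compound in non-phytotoxic solvent plus surfactant, pre- or postemergence (one- to two-leaf stage).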

[4] = test system: giant foxtail (Setaria faberi); experiment: Test A preemergence, giant foxtail; conditions: 0 to 100 scale (0 no effect, 100 complete control)
In short: as §2

[5] = test system: morningglory (Ipomoea spp.); experiment: Test A preemergence, morningglory; conditions: 0 to 100 scale (0 no effect, 100 complete control)
In short: as §2

[6] = test system: giant foxtail (Setaria faberi); experiment: Test A postemergence, giant foxtail; conditions: 0 to 100 scale (0 no effect, 100 complete control)
In short: as §2

[7] = test system: velvetleaf (Abutilon theophrasti); experiment: Test A postemergence, velvetleaf; conditions: 0 to 100 scale (0 no effect, 100 complete control)
In short: as §2

[8] = test system: morningglory (Ipomoea spp.); experiment: Test A postemergence, morningglory; conditions: 0 to 100 scale (0 no effect, 100 complete control)
In short: as §2

[9] = test system: pigweed (Amaranthus retroflexus); experiment: Test B preemergence, pigweed; conditions: scale 0 to 100
In short: as §1

[10] = test system: lambsquarters (Chenopodium album); experiment: Test B preemergence, lambsquarters; conditions: scale 0 to 100
In short: as §1

[11] = test system: barnyardgrass (Echinochloa crus-galli); experiment: Test B flooded paddy test, barnyardgrass; conditions: Flood
In short: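 Rice, umbrella sedge, ducksalad and barnyardgrass at 2-leaf stage; pots flooded to 3 cm, compounds applied into paddy water, depth held throughout. Greenhouse 13 to 15 days, then visual rating vs untreated controls on 0–100 scale (0 no effect, 100 complete control); dash means no test result.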

[12] = test system: cocklebur (Xanthium strumarium); experiment: Test B preemergence, cocklebur; conditions: scale 0 to 100
In short: as §1

[13] = test system: goosegrass (Eleusine indica); experiment: Test B preemergence, goosegrass; conditions: scale 0 to 100
In short: as §1

[14] = test system: wheat (Triticum aestivum); experiment: Test A preemergence, wheat; conditions: 0 to 100 scale (0 no effect, 100 complete control)
In short: as §2

[15] = test system: barnyardgrass (Echinochloa crus-galli); experiment: Test A preemergence, barnyardgrass; conditions: 0 to 100 scale (0 no effect, 100 complete control)
In short: as §2

[16] = test system: velvetleaf (Abutilon theophrasti); experiment: Test B preemergence, velvetleaf; conditions: Preemergence, scale 0 to 100
In short: as §1

[17] = test system: large crabgrass (Digitaria sanguinalis); experiment: Test A preemergence, large crabgrass; conditions: 0 to 100 scale (0 no effect, 100 complete control)
In short: as §2

[18] = test system: Surinam grass (Brachiaria decumbens); experiment: Test B preemergence, Surinam grass; conditions: Preemergence, scale 0 to 100
In short: as §1

[19] = test system: corn (Zea mays); experiment: Test A preemergence, corn; conditions: 0 to 100 scale (0 no effect, 100 complete control)
In short: as §2

[20] = test system: downy bromegrass (Bromus tectorum); experiment: Test B preemergence, downy bromegrass; conditions: scale 0 to 100
In short: as §1

[21] = 250 g ai/ha, scale 0 to 100 (0 no effect, 100 complete control)

CC1(C)CC(S(=O)(=O)Cc2c(C(F)(F)Cl)nc3n(c2=O)CCC3)=NO1 [Compound 18]
Plant response rating, Sunflower ([1]; 16 g ai/ha): 0
Plant response rating, Sunflower ([1]; 31 g ai/ha): 0
Plant response rating, Sunflower ([1]; 62 g ai/ha): 0
Plant response rating, Sunflower ([1]; 125 g ai/ha): 0
Plant response rating, Soybean ([2]; 16 g ai/ha): 0
Plant response rating, Soybean ([2]; 31 g ai/ha): 0
Plant response rating, Soybean ([2]; 62 g ai/ha): 0
Plant response rating, Soybean ([2]; 125 g ai/ha): 0
Plant response rating, Crabgrass, Large ([3]; 125 g ai/ha): 60
Plant response rating, Crabgrass, Large ([3]; 500 g ai/ha): 90
Plant response rating, Foxtail, Giant ([4]; 125 g ai/ha): 90
Plant response rating, Foxtail, Giant ([4]; 500 g ai/ha): 100
Plant response rating, Morningglory ([5]; 125 g ai/ha): 0
Plant response rating, Morningglory ([5]; 500 g ai/ha): 50
Plant response rating, Foxtail, Giant ([6]; 125 g ai/ha): 70
Plant response rating, Foxtail, Giant ([6]; 500 g ai/ha): 80
Plant response rating, Velvetleaf ([7]; 125 g ai/ha): 30
Plant response rating, Velvetleaf ([7]; 500 g ai/ha): 60
Plant response rating, Morningglory ([8]; 125 g ai/ha): 30
Plant response rating, Morningglory ([8]; 500 g ai/ha): 60
Plant response rating, Pigweed ([9]; 16 g ai/ha): 0
Plant response rating, Pigweed ([9]; 31 g ai/ha): 100
Plant response rating, Pigweed ([9]; 62 g ai/ha): 100
Plant response rating, Pigweed ([9]; 125 g ai/ha): 100
Plant response rating, Lambsquarters ([10]; 16 g ai/ha): 0
Plant response rating, Lambsquarters ([10]; 31 g ai/ha): 0
Plant response rating, Lambsquarters ([10]; 62 g ai/ha): 75
Plant response rating, Lambsquarters ([10]; 125 g ai/ha): 85
Plant response rating, Barnyardgrass ([11]; 31 g ai/ha, scale 0 to 100): 0
Plant response rating, Barnyardgrass ([11]; 62 g ai/ha, scale 0 to 100): 0
Plant response rating, Barnyardgrass ([11]; 125 g ai/ha, scale 0 to 100): 0
Plant response rating, Barnyardgrass [11, 21]: 0
Plant response rating, Cocklebur ([12]; 16 g ai/ha): 0
Plant response rating, Cocklebur ([12]; 31 g ai/ha): 0
Plant response rating, Cocklebur ([12]; 62 g ai/ha): 0
Plant response rating, Cocklebur ([12]; 125 g ai/ha): 0
Plant response rating, Goosegrass ([13]; 16 g ai/ha): 0
Plant response rating, Goosegrass ([13]; 31 g ai/ha): 95
Plant response rating, Goosegrass ([13]; 62 g ai/ha): 98
Plant response rating, Goosegrass ([13]; 125 g ai/ha): 98
Plant response rating, Wheat ([14]; 125 g ai/ha): 0
Plant response rating, Wheat ([14]; 500 g ai/ha): 30
Plant response rating, Barnyardgrass ([15]; 125 g ai/ha): 70
Plant response rating, Barnyardgrass ([15]; 500 g ai/ha): 100
Plant response rating, Velvetleaf ([16]; 16 g ai/ha): 0
Plant response rating, Velvetleaf ([16]; 31 g ai/ha): 0
Plant response rating, Velvetleaf ([16]; 62 g ai/ha): 0
Plant response rating, Velvetleaf ([16]; 125 g ai/ha): 0
Plant response rating, Crabgrass, Large ([17]; 125 g ai/ha): 90
Plant response rating, Crabgrass, Large ([17]; 500 g ai/ha): 100
Plant response rating, Surinam Grass ([18]; 16 g ai/ha): 0
Plant response rating, Surinam Grass ([18]; 31 g ai/ha): 40
Plant response rating, Surinam Grass ([18]; 62 g ai/ha): 75
Plant response rating, Surinam Grass ([18]; 125 g ai/ha): 85
Plant response rating, Corn ([19]; 125 g ai/ha): 0
Plant response rating, Corn ([19]; 500 g ai/ha): 0
Plant response rating, Bromegrass, Downy ([20]; 16 g ai/ha): 0
Plant response rating, Bromegrass, Downy ([20]; 31 g ai/ha): 0
Plant response rating, Bromegrass, Downy ([20]; 62 g ai/ha): 0
Plant response rating, Bromegrass, Downy ([20]; 125 g ai/ha): 20

CC1(C)CC(S(=O)(=O)Cc2c(C(F)(F)F)nc3n(c2=O)CCO3)=NO1 [Compound 2, 6-[[(4,5-dihydro-5,5-dimethyl-3-isoxazolyl)sulfonyl]methyl]-2,3-dihydro-7-(trifluoromethyl)-5H-oxazolo[3,2-α]pyrimidin-5-one]
Plant response rating, Sunflower ([1]; 16 g ai/ha): 0
Plant response rating, Sunflower ([1]; 31 g ai/ha): 0
Plant response rating, Sunflower ([1]; 62 g ai/ha): 0
Plant response rating, Soybean ([2]; 31 g ai/ha): 0
Plant response rating, Soybean ([2]; 62 g ai/ha): 0
Plant response rating, Crabgrass, Large ([3]; 125 g ai/ha): 60
Plant response rating, Crabgrass, Large ([3]; 500 g ai/ha): 90
Plant response rating, Foxtail, Giant ([4]; 125 g ai/ha): 90
Plant response rating, Foxtail, Giant ([4]; 500 g ai/ha): 100
Plant response rating, Morningglory ([5]; 125 g ai/ha): 0
Plant response rating, Morningglory ([5]; 500 g ai/ha): 80
Plant response rating, Foxtail, Giant ([6]; 125 g ai/ha): 50
Plant response rating, Foxtail, Giant ([6]; 500 g ai/ha): 80
Plant response rating, Velvetleaf ([7]; 125 g ai/ha): 30
Plant response rating, Velvetleaf ([7]; 500 g ai/ha): 60
Plant response rating, Morningglory ([8]; 125 g ai/ha): 30
Plant response rating, Morningglory ([8]; 500 g ai/ha): 70
Plant response rating, Pigweed ([9]; 8 g ai/ha): 0
Plant response rating, Pigweed ([9]; 16 g ai/ha): 0
Plant response rating, Pigweed ([9]; 31 g ai/ha): 0
Plant response rating, Pigweed ([9]; 62 g ai/ha): 0
Plant response rating, Lambsquarters ([10]; 8 g ai/ha): 0
Plant response rating, Lambsquarters ([10]; 31 g ai/ha): 0
Plant response rating, Lambsquarters ([10]; 62 g ai/ha): 0
Plant response rating, Barnyardgrass ([11]; 62 g ai/ha, scale 0 to 100): 0
Plant response rating, Barnyardgrass [11, 21]: 0
Plant response rating, Cocklebur ([12]; 8 g ai/ha): 0
Plant response rating, Cocklebur ([12]; 16 g ai/ha): 0
Plant response rating, Cocklebur ([12]; 31 g ai/ha): 0
Plant response rating, Cocklebur ([12]; 62 g ai/ha): 0
Plant response rating, Goosegrass ([13]; 8 g ai/ha): 0
Plant response rating, Goosegrass ([13]; 16 g ai/ha): 65
Plant response rating, Goosegrass ([13]; 31 g ai/ha): 75
Plant response rating, Goosegrass ([13]; 62 g ai/ha): 80
Plant response rating, Wheat ([14]; 125 g ai/ha): 10
Plant response rating, Wheat ([14]; 500 g ai/ha): 60
Plant response rating, Barnyardgrass ([15]; 125 g ai/ha): 80
Plant response rating, Barnyardgrass ([15]; 500 g ai/ha): 90
Plant response rating, Velvetleaf ([16]; 16 g ai/ha): 0
Plant response rating, Velvetleaf ([16]; 31 g ai/ha): 0
Plant response rating, Velvetleaf ([16]; 62 g ai/ha): 0
Plant response rating, Crabgrass, Large ([17]; 125 g ai/ha): 90
Plant response rating, Crabgrass, Large ([17]; 500 g ai/ha): 100
Plant response rating, Surinam Grass ([18]; 16 g ai/ha): 0
Plant response rating, Surinam Grass ([18]; 31 g ai/ha): 80
Plant response rating, Surinam Grass ([18]; 62 g ai/ha): 80
Plant response rating, Corn ([19]; 125 g ai/ha): 0
Plant response rating, Corn ([19]; 500 g ai/ha): 50
Plant response rating, Bromegrass, Downy ([20]; 8 g ai/ha): 0
Plant response rating, Bromegrass, Downy ([20]; 16 g ai/ha): 0
Plant response rating, Bromegrass, Downy ([20]; 31 g ai/ha): 0
Plant response rating, Bromegrass, Downy ([20]; 62 g ai/ha): 0

— patent US20100099561A1, “HETEROBICYCLIC ALKYLTHIO-BRIDGED ISOXAZOLINES” (E.I. DU PONT DE NEMOURS AND COMPANY, priority 2008, published 2010)
